{"source": "ChEMBL document CHEMBL5131385", "about": "“Novel piperazine based benzamide derivatives as potential anti-glioblastoma agents inhibiting cell proliferation and cell cycle progression” (Eur J Med Chem, 2022)", "key": {"U-251 [1]": {"system": "U-251", "test": "Induction of apoptosis in human U-251 cells assessed as enlargement of intracellular space at 0.375 to 6 uM measured after 72 hrs by Giemsa staining based microscopic analysis", "assay_type": "functional, cell-based", "details": "dose 0.375-6 µM"}, "[2]": {"test": "Antiproliferative activity against human U-87 MG cells assessed as inhibition of cell proliferation measured after 72 hrs by CCK8 assay", "assay_type": "functional, cell-based, U-87MG ATCC"}, "C6": {"system": "C6", "test": "Antiproliferative activity against rat C6 cells assessed as inhibition of cell proliferation measured after 72 hrs by CCK8 assay", "assay_type": "functional, cell-based", "details": "C6, 72 h"}, "U-251 [3]": {"system": "U-251", "test": "Antiproliferative activity against human U-251 cells assessed as inhibition of cell proliferation upto 72 hrs by CCK8 assay", "assay_type": "functional, cell-based", "details": "TDE = time-dependent effect"}, "U-87MG ATCC [4]": {"system": "U-87MG ATCC", "test": "Antiproliferative activity against human U-87 MG cells assessed as reduction in cell proliferation at 0.125 to 0.5 uM and measured after 24 hrs by EdU incorporation based assay", "assay_type": "functional", "details": "dose 0.125-0.5 µM, DDE = dose-dependent effect"}, "U-251 [5]": {"system": "U-251", "test": "Antiproliferative activity against human U-251 cells assessed as reduction in cell proliferation at 0.075 to 1.2 uM and measured after 24 hrs by EdU incorporation based assay", "assay_type": "functional", "details": "dose 0.075-1.2 µM, DDE = dose-dependent effect"}, "U-87MG ATCC [6]": {"system": "U-87MG ATCC", "test": "Induction of apoptosis in human U-87 MG cells assessed as morphological changes at 0.075 to 1.20 uM measured after 72 hrs by Giemsa staining based microscopic analysis", "assay_type": "functional, cell-based", "details": "dose 0.075-1.2 µM"}, "U-251 [7]": {"system": "U-251", "test": "Induction of apoptosis in human U-251 cells assessed as morphological changes at 0.375 to 6 uM measured after 72 hrs by Giemsa staining based microscopic analysis", "assay_type": "functional, cell-based", "details": "dose 0.375-6 µM"}, "U-87MG ATCC [8]": {"system": "U-87MG ATCC", "test": "Induction of apoptosis in human U-87 MG cells assessed as reduction in cell count at 0.075 to 1.20 uM measured after 72 hrs by Giemsa staining based microscopic analysis", "assay_type": "functional", "details": "dose 0.075-1.2 µM"}, "U-251 [9]": {"system": "U-251", "test": "Induction of apoptosis in human U-251 cells assessed as reduction in cell count at 0.375 to 6 uM measured after 72 hrs by Giemsa staining based microscopic analysis", "assay_type": "functional", "details": "dose 0.375-6 µM"}, "U-87MG ATCC [10]": {"system": "U-87MG ATCC", "test": "Induction of apoptosis in human U-87 MG cells assessed as enlargement of intracellular space at 0.075 to 1.20 uM measured after 72 hrs by Giemsa staining based microscopic analysis", "assay_type": "functional, cell-based", "details": "dose 0.075-1.2 µM"}, "U-87MG ATCC [11]": {"system": "U-87MG ATCC", "test": "Induction of apoptosis in human U-87 MG cells assessed as decrease in cell size at 0.075 to 1.20 uM measured after 72 hrs by Giemsa staining based microscopic analysis", "assay_type": "functional", "details": "dose 0.075-1.2 µM"}, "U-251 [12]": {"system": "U-251", "test": "Induction of apoptosis in human U-251 cells assessed as decrease in cell size at 0.375 to 6 uM measured after 72 hrs by Giemsa staining based microscopic analysis", "assay_type": "functional", "details": "dose 0.375-6 µM"}, "U-251 [13]": {"system": "U-251", "test": "Induction of apoptosis in human U-251 cells assessed as formation of spindle shaped cells at 0.375 to 6 uM measured after 72 hrs by Giemsa staining based microscopic analysis", "assay_type": "functional, cell-based", "details": "dose 0.375-6 µM"}, "[14]": {"test": "Induction of apoptosis in human U-87 MG cells assessed as early apoptotic cells at 1.20 uM incubated for 72 hrs by Annexin V-FITC/PI staining based flow cytometry method (reference value: 2.53 %)", "assay_type": "functional, U-87MG ATCC", "details": "dose 1.2 µM"}, "[15]": {"test": "Induction of apoptosis in human U-87 MG cells assessed as viable cells at 0.30 uM incubated for 72 hrs by Annexin V-FITC/PI staining based flow cytometry method (reference value: 96.84 %)", "assay_type": "functional, U-87MG ATCC", "details": "read-out: Activity"}, "U-251 [16]": {"system": "U-251", "test": "Induction of apoptosis in human U-251 cells assessed as viable cells at 6 uM incubated for 72 hrs by Annexin V-FITC/PI staining based flow cytometry method (reference value: 96.22 %)", "assay_type": "functional", "details": "read-out: Activity"}, "U-251 [17]": {"system": "U-251", "test": "Induction of apoptosis in human U-251 cells assessed as necrotic cells at 6 uM incubated for 72 hrs by Annexin V-FITC/PI staining based flow cytometry method (Rvb =0.51 %)", "assay_type": "functional"}, "U-251 [18]": {"system": "U-251", "test": "Induction of apoptosis in human U-251 cells assessed as early apoptotic cells at 0.375 uM incubated for 72 hrs by Annexin V-FITC/PI staining based flow cytometry method (Rvb =1.96 %)", "assay_type": "functional"}, "U-251 [19]": {"system": "U-251", "test": "Induction of apoptosis in human U-251 cells assessed as late apoptotic cells at 1.50 uM incubated for 72 hrs by Annexin V-FITC/PI staining based flow cytometry method (Rvb =1.31 %)", "assay_type": "functional", "details": "dose 1.5 µM"}, "U-87MG ATCC [20]": {"system": "U-87MG ATCC", "test": "Induction of cell cycle arrest in human U-87 MG cells assessed as accumulation at G0/G1 phase at 0.075 to 1.2 uM and measured after 72 hrs by flow cytometry", "assay_type": "functional, cell-based", "details": "dose 0.075-1.2 µM, DDE = dose-dependent effect"}, "U-251 [21]": {"system": "U-251", "test": "Induction of cell cycle arrest in human U-251 cells assessed as decrease in accumulation at S phase at 0.75 to 3 uM measured after 72 hrs by flow cytometry", "assay_type": "functional, cell-based", "details": "dose 0.75-3 µM, DDE = dose-dependent effect"}, "U-87MG ATCC [22]": {"system": "U-87MG ATCC", "test": "Induction of cell cycle arrest in human U-87 MG cells assessed as decrease in accumulation at G2/M phase at 0.075 to 1.20 uM measured after 72 hrs by flow cytometry", "assay_type": "functional, cell-based", "details": "dose 0.075-1.2 µM, DDE = dose-dependent effect"}, "U-87MG ATCC [23]": {"system": "U-87MG ATCC", "test": "Antiinvasive activity against human U-87 MG cells assessed as inhibition of cell invasion at 0.125 to 0.50 uM and measured after 24 hrs by transwell invasion assay", "assay_type": "functional, cell-based", "details": "dose 0.125-0.5 µM, DDE = dose-dependent effect"}, "[24]": {"test": "Half life in Sprague-Dawley rat plasma at 100 mg/kg, ip and measured upto 240 mins by LC-MS analysis", "assay_type": "ADME, organism-based"}, "[25]": {"test": "Half life in Sprague-Dawley rat brain at 100 mg/kg, ip and measured upto 240 mins by LC-MS analysis", "assay_type": "ADME, organism-based"}, "[26]": {"test": "Tmax in Sprague-Dawley rat plasma at 100 mg/kg, ip and measured upto 240 mins by LC-MS analysis", "assay_type": "ADME, organism-based"}, "[27]": {"test": "Tmax in Sprague-Dawley rat brain at 100 mg/kg, ip and measured upto 240 mins by LC-MS analysis", "assay_type": "ADME, organism-based"}, "[28]": {"test": "Cmax in Sprague-Dawley rat plasma at 100 mg/kg, ip and measured upto 240 mins by LC-MS analysis", "assay_type": "ADME, organism-based", "parameters": "dose 100 mg/kg, time < 240 min, route ip"}, "[29]": {"test": "AUC (0 to infinity) in Sprague-Dawley rat brain at 100 mg/kg, ip and measured upto 240 mins by LC-MS analysis", "assay_type": "ADME, organism-based", "parameters": "dose 100 mg/kg, time < 240 min, route ip"}, "[30]": {"test": "Acute toxicity in Kunming mouse assessed as pathological changes in spleen at 600 mg/kg, ip measured after 24 hrs by H and E staining analysis", "assay_type": "organism-based", "details": "in vivo"}, "U-251 [31]": {"system": "U-251", "test": "Downregulation of pRb gene expression in human U-251 cells at 0.075 to 1.2 uM measured after 72 hrs by western blot analysis", "assay_type": "functional, cell-based", "details": "dose 0.075-1.2 µM"}, "U-87MG ATCC [32]": {"system": "U-87MG ATCC", "test": "Downregulation of cyclin D1 gene expression in human U-87 MG cells at 0.075 to 1.2 uM measured after 72 hrs by western blot analysis", "assay_type": "functional, cell-based", "details": "dose 0.075-1.2 µM"}, "U-87MG ATCC [33]": {"system": "U-87MG ATCC", "test": "Downregulation of CDK6 gene expression in human U-87 MG cells at 0.075 to 1.2 uM measured after 72 hrs by western blot analysis", "assay_type": "functional, cell-based", "details": "dose 0.075-1.2 µM"}, "U-87MG ATCC [34]": {"system": "U-87MG ATCC", "test": "Upregulation of p16 INK4a gene expression in human U-87 MG cells at 0.075 to 1.2 uM measured after 72 hrs by western blot analysis", "assay_type": "functional, cell-based", "details": "dose 0.075-1.2 µM"}, "[35]": {"test": "Permeability of compound across blood brain barrier in Sprague-Dawley rat at 100 mg/kg, ip and measured after 240 mins by LC-MS analysis", "assay_type": "ADME, organism-based", "details": "read-out: BBR"}, "U-251 [36]": {"system": "U-251", "test": "Upregulation of p16 INK4a gene expression in human U-251 cells at 0.075 to 1.2 uM measured after 72 hrs by western blot analysis", "assay_type": "functional, cell-based", "details": "dose 0.075-1.2 µM"}}, "note": "Calls of active or inactive are those of the source. No cut-off for these calls is given here."}
{"smiles": "COCCN1CCN(c2ccc(F)cc2C(=O)Nc2ccc(CNC(=O)OCc3cccnc3)cc2)CC1", "values": [{"measurement": "Activity", "setting": "U-251 [1]", "result": "Active"}, {"measurement": "IC50", "setting": "[2]", "result": 290, "unit": "nM"}, {"measurement": "IC50", "setting": "C6", "result": 150, "unit": "nM"}, {"measurement": "Activity", "setting": "U-251 [3]", "result": "Tde"}, {"measurement": "Activity", "setting": "U-87MG ATCC [4]", "result": "Dde"}, {"measurement": "Activity", "setting": "U-251 [5]", "result": "Dde"}, {"measurement": "Activity", "setting": "U-87MG ATCC [6]", "result": "Active"}, {"measurement": "Activity", "setting": "U-251 [7]", "result": "Active"}, {"measurement": "Activity", "setting": "U-87MG ATCC [8]", "result": "Active"}, {"measurement": "Activity", "setting": "U-251 [9]", "result": "Active"}, {"measurement": "Activity", "setting": "U-87MG ATCC [10]", "result": "Active"}, {"measurement": "Activity", "setting": "U-87MG ATCC [11]", "result": "Active"}, {"measurement": "Activity", "setting": "U-251 [12]", "result": "Active"}, {"measurement": "Activity", "setting": "U-251 [13]", "result": "Active"}, {"measurement": "Activity", "setting": "[14]", "result": 17.92, "unit": "%"}, {"measurement": "viability at 0.3 µM", "setting": "[15]", "result": 94.2, "unit": "%"}, {"measurement": "viability at 6 µM", "setting": "U-251 [16]", "result": 86.8, "unit": "%"}, {"measurement": "Activity", "setting": "U-251 [17]", "result": 2.63, "unit": "%"}, {"measurement": "Activity", "setting": "U-251 [18]", "result": 1.9, "unit": "%"}, {"measurement": "Activity", "setting": "U-251 [19]", "result": 2.47, "unit": "%"}, {"measurement": "Activity", "setting": "U-87MG ATCC [20]", "result": "Dde"}, {"measurement": "Activity", "setting": "U-251 [21]", "result": "Dde"}, {"measurement": "Activity", "setting": "U-87MG ATCC [22]", "result": "Dde"}, {"measurement": "Activity", "setting": "U-87MG ATCC [23]", "result": "Dde"}, {"measurement": "half-life", "setting": "[24]", "result": 52.8, "unit": "min"}, {"measurement": "half-life", "setting": "[25]", "result": 43.8, "unit": "min"}, {"measurement": "Tmax", "setting": "[26]", "result": 30, "unit": "min"}, {"measurement": "Tmax", "setting": "[27]", "result": 30, "unit": "min"}, {"measurement": "Cmax", "setting": "[28]", "result": 71.7, "unit": "µg/mL"}, {"measurement": "AUC(0-inf)", "setting": "[29]", "result": 102, "unit": "µg·h/mL"}, {"measurement": "Activity", "setting": "[30]", "result": "Non-Toxic"}, {"measurement": "Activity", "setting": "U-251 [31]", "result": "Active"}, {"measurement": "Activity", "setting": "U-87MG ATCC [32]", "result": "Active"}, {"measurement": "Activity", "setting": "U-87MG ATCC [33]", "result": "Active"}, {"measurement": "Activity", "setting": "U-87MG ATCC [34]", "result": "Active"}, {"measurement": "Kp at 4 h", "setting": "[35]", "result": 1.07}, {"measurement": "Activity", "setting": "U-251 [36]", "result": "Active"}]}
